{
  "source": "patent US20030176356A1",
  "about": "“Endothelin antagonists and endothelin-converting enzyme inhibitors for the treatment of glaucoma” (University of North Texas Health Science Center, priority 2001, published 2003)",
  "key": {"[1]": {"test_system": "human non-pigmented ciliary epithelial (HNPE) cells", "assay": "Nitric oxide release from HNPE cells (nitrite, Griess colorimetric assay)", "type": "cell-based", "conditions": "100 nM ET-1, 24 hours; control 14.4±1.8 μM nitrite", "description": "The effect of endothelin-1 (ET-1) and PD-142893, an ETA/B receptor antagonist, on nitric oxide (“NO”) release from human non-pigmented ciliary epithelial (HNPE) cells are illustrated in FIG. 6. The NO released into the culture media from HNPE cells grown in 24-well plates and treated with ET-1 (100 nM) for 24 hours was converted to nitrites. The total amount of nitrites was measured using the Griess colorimetric assay. HNPE cells were pre-treated with PD-142893 (1 μM) for 30 minutes and then 100 nM ET-1 was also added and incubated for 24 hours. The values in FIG. 6 represent the mean±SEM of a ratio between the nitrite produced under experimental conditions divided by the nitrite produced in control cells, which corresponded to 14.4±1.8 μM and controls were expressed as 100% (n=3). Statistical significance of the nitrite released from ET-1 (100 nM) treatment versus the control are denoted with an asterisk (“*”). Statistical significance of the nitrite released from PD-142893+ET-1 (100 nM) treatment versus that of ET-1 (100 nM) are denoted as a double asterisk (“**”) The statistical differenced were determined by one-way ANOVA and Student-Newman-Keuls multiple comparison test (p<0.05). Thus, addition of ET-1 increased the nitrite levels nearly 2-fold when compared to control cells or cells treated with PD-142893."}, "[2]": {"test_system": "NOS2", "assay": "NOS2 mRNA expression in HNPE cells by RT-PCR", "type": "cell-based, human", "conditions": "100 nM ET-1, 24 hours, qualitative, vs non-treated controls", "description": "Utilizing the powerful technique of RT-PCR on mRNA transcripts of NOS2, the amplified products were separated on an agarose gel and compared with untreated control RT_PCR products. […] RT-PCR products of the β-actin housekeeping gene were also amplified and visualized on an agarose gel as a mRNA isolation control."}, "[3]": {"test_system": "rat optic nerve", "assay": "Anterograde axonal transport in rat optic nerve after intravitreal injection (35S-methionine pulse label)", "type": "in vivo", "conditions": "for effect of ET-1 on anterograde axonal transport: intravitreal 2 nmol", "description": "Newly synthesized proteins undergoing anterograde axonal transport in the optic nerve were pulse-labeled in either the presence or absence of endothelin as modified from previously published methods (van Biesen et al., 1995). Modifications to previously published methods were minimal and involved the replacement of a distilled water vehicle for resuspension of radiolabeled precursors with either HEPES buffered ET-1 or HEPES vehicle buffer alone. ^35S-Methionine (Easytag EXPRESS PROTEIN LABELING MIX, Dupont-NEN Life Sciences, Boston, Mass.) was lyophilized and resuspended in either vehicle alone (10 mM HEPES, pH 7.4, Sigma Chemical Co., St Louis, Mo.) or in vehicle containing 500 μM ET-1 (Bachem, Belmont, Calif.). Rats were anesthetized by Metofane inhalation, and 0.8 mCi (4 μl) of radiolabel in vehicle either plus or minus ET-1 (final dose 2 mmols), was injected into the vitreous of the left eye using a 30 gauge needle attached to a Hamilton syringe (microliter #710, 22s gauge, Hamilton Co., Reno, Nev.) by polyethylene tubing (PE-20, Clay Adams Brand, Becton Dickson and Co., Sparks, Md.) (van Biesen et al., 1995). In one experiment, ET-3 was substituted for ET-1, using the same methods (2 mmol dose, 28 hour ISI, N=7 for controls, N=7 for experimentals). […] One minute after injection, all retinas appeared normal in color. (Based upon these initial observations, further observations of the retinas were not performed). Information on the dose-related effect(s) of intravitreal ET-1 in this species (i.e. rat) were unavailable, and physiological/pathological concentrations of endothelin in the optic nerve head's microenvironment are generally unknown. Therefore, dose selection was made on the basis of a small pilot study, using these methods and measuring the total pulse-labeled protein axonally transported into the rat optic nerve. (An N of 3 rats in every group was used only for the pilot study, 4 hour ISI, data not shown). […] However, significant effects on axonal transport (4 hour ISI) were only seen in the pilot study for the 2 mmol dose. […] Possible effect(s) on non-assayed ocular tissues were not considered in dose selection, as data on these were unavailable for either acute or chronic intravitreal ET-1 administration, in rats.\nThis technique was employed to determine if endothelin-1 also affected the axonal transport in the optic nerve of rats, which is severely compromised in glaucoma. Harvest and preparation of pulse-labeled optic nerves in animals, wherein animals were anesthetized with metofane at specified times after injection and sacrificed by decapitation. Injection-sacrifice intervals were selected based upon the published characterizations of anterograde axonal transport in rat optic nerve for specific marker proteins associated with specific classes of axonally transported materials (Table 4) (Elluru et al., 1995; Garner and Lasek, 1981; Garner and Lasek, 1982; Jahn et al., 1985). Seven vehicle-treated animals and seven endothelin-treated animals were sacrificed at each of the specified times (4, 24, 28, 32, 36 hours and 4, 21 days). Optic nerves were removed, flash frozen with crushed dry ice, and sectioned frozen. Nerves were sectioned to aid complete homogenization, and to provide additional data for future studies. The frozen sections (2 mm in length) were numbered as segments 1-4 (from proximal to distal), and glass-on glass homogenized in 100 μlof BUST sample buffer (2% β-mercaptoethanol, 8M urea, 1% SDS, 0.1M Tris, 0.02% phenol red, pH 7.4). A 25% aliquot of each homogenized segment was counted in a liquid scintillation counter, and counts were corrected for decay, quench, and counting efficiency."}, "[4]": {"test_system": "NOS-2", "assay": "NOS-2 mRNA expression in retina after intravitreal injection, RT-PCR", "type": "in vivo, Brown Norway rats", "conditions": "intravitreal 2 mmoles, 4 hours or 24 hours post-injection", "description": "Elevated NOS-2 expression and peroxynitrite labeling are observed in glaucomatous retina and optic nerve head and are considered to be neurotoxic, which promote retinal ganglion cell death. ET-1 was injected in the left eye (OS) of rats while the right eye served as an contralateral control. Saline was also injected in some rats."}},
  "note": "Entries after “also recorded” stand apart in the source; their conditions may differ. No end group written: not given here.",
  "data": [
    {"substance": "ET-1: active 21 amino acid residue endothelin peptide (Bachem) (CSCSSLMDKECVYFCHLDIIW; ends and bridges not checked; cysteine pairing not given here; UniProt P05305 53-73, looked up)", "values": [
      {"measurement": "increase of nitrite levels compared to control cells", "setting": "[1]", "value": "~2", "unit": "fold"},
      {"measurement": "NOS2 mRNA levels", "setting": "[2]", "value": "elevated mRNA levels of NOS2"},
      {"measurement": "total pulse-labeled protein axonally transported into the rat optic nerve (pilot study)", "setting": "[3]; 0.3, 0.4, and 2 mmol doses intravitreal, 4 hour ISI, significant only for the 2 mmol dose", "value": "trend of increasingly enhanced axonal transport"},
      {"measurement": "effect of ET-1 on anterograde axonal transport", "setting": "[3]; ISI 4 hr, fast component, MBO/small tubulovesicles", "value": "significant enhancement; also recorded: increased"},
      {"measurement": "effect of ET-1 on anterograde axonal transport", "setting": "[3]; ISI 24 hr, fast component, MBO/small tubulovesicles", "value": "significant enhancement; also recorded: increased"},
      {"measurement": "effect of ET-1 on anterograde axonal transport", "setting": "[3]; ISI 28 hr, fast component, MBO/mitochondria", "value": "significant reduction; also recorded: decreased"},
      {"measurement": "effect of ET-1 on anterograde axonal transport", "setting": "[3]; ISI 32 hr, fast component, MBO/mitochondria", "value": "significant reduction; also recorded: decreased"},
      {"measurement": "effect of ET-1 on anterograde axonal transport", "setting": "[3]; ISI 36 hr, fast component, MBO/mitochondria", "value": "significant reduction; also recorded: decreased"},
      {"measurement": "effect of ET-1 on anterograde axonal transport", "setting": "[3]; ISI 4 days, SCa, cytoplasmic matrix proteins", "value": "significant reduction; also recorded: decreased"},
      {"measurement": "effect of ET-1 on anterograde axonal transport", "setting": "[3]; ISI 21 days, SCb, cytoskeletal proteins", "value": "significant reduction; also recorded: decreased"},
      {"measurement": "mRNA expression of inducible nitric oxide synthase-2 (NOS-2) in the retina", "setting": "[4]", "value": "causes the mRNA expression of inducible nitric oxide synthase-2 (NOS-2)"}
    ]}
  ]
}
